Structures can show the parent of a compound that is named as a salt.
Assays:
MAO-B = biological target: T1, MAO-B (Homo sapiens, UniProt P27338); experiment: Inhibition of the enzymatic activity of MAO-B; format: biochemical; conditions: range of IC50 from inhibition rates at 10 μM, 1 μM and 0.1 μM; read-out: IC50, inhibition against the enzymatic activity of MAO-B
T1 construct: purchased Sigma Aldrich
T1 sequence (P27338 1-520): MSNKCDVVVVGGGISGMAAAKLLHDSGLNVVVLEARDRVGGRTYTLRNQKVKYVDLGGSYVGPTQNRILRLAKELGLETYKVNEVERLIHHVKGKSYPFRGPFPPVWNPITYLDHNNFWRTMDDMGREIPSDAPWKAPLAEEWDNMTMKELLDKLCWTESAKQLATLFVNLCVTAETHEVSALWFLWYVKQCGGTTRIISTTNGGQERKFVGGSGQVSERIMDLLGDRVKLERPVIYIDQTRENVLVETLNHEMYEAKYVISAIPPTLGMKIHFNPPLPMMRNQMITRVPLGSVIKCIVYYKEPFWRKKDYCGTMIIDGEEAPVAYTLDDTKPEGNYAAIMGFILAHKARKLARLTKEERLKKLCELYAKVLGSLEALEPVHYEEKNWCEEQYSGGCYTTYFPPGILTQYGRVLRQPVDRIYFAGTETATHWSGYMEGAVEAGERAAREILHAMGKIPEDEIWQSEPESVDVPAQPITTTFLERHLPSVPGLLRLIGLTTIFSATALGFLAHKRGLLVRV
Procedure: Inhibition Experiment Against the Enzymatic Activity of MAO-B (Monoamine Oxidase Type B)
(§1) 1. Test kit: Amplex® Red Monoamine Oxidase Assay, Manufacturer: ThermoFisher
Protein: MAO-B, manufacturer: Sigma Aldrich
According to the method as described in the specification of the test kit, MAO-B protein (5 μg/ml) and different concentrations of the test compound were pre-incubated at room temperature for 10 minutes, and then 150 μM benzylamine hydrochloride, 1 U/mL HRP and 200 μM Amplex Red reagent were added to start the reaction. The relative inhibition rate of each concentration group were calculated according to the experimental method of MAO-A.
According to the above method, the inhibition of the compound against the activity of the MAO-B was measured, and the range of IC50 was obtained according to the inhibition rates at 10 μM, 1 μM and 0.1 μM.

hERG = biological target: T2, hERG (Homo sapiens, UniProt Q12809); experiment: hERG fluorescence polarization inhibition experiment; conditions: hERG cell membrane, 25° C. 2 hours, read-out: hERG (IC50 range, competitive binding vs tracer)
T2 construct: purchased ThermoFisher; host or cells: hERG cell membrane supplied with the kit
Outline: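 Fluorescence-polarization tracer displacement on hERG cell membranes; compound and high-affinity tracer incubated 2 h at 25 °C. % inhibition from mP relative to buffer (0%) and 30 μM E4031 (100%) over several concentrations, giving an IC50 range.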

MAO-A = biological target: T3, MAO-A (Homo sapiens, UniProt P21397); experiment: Inhibition of the enzymatic activity of MAO-A; format: biochemical; conditions: range of IC50 from inhibition rates at 100 μM and 10 μM; read-out: IC50, inhibition against the enzymatic activity of MAO-A
T3 construct: purchased Sigma Aldrich
T3 sequence (P21397 1-527): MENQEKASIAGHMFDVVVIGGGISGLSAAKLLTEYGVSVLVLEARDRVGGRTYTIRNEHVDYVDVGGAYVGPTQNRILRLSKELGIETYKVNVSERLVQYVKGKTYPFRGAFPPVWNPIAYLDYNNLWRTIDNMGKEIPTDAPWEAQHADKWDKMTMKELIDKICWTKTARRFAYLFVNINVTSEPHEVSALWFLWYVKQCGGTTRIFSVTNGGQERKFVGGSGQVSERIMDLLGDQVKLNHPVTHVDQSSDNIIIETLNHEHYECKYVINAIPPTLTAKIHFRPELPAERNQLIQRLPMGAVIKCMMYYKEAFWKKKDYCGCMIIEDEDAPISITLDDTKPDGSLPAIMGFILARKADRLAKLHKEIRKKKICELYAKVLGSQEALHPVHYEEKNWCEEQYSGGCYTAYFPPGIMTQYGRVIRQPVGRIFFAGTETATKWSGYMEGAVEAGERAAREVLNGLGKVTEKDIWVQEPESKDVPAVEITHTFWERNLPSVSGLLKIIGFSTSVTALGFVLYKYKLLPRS
Procedure: Inhibition Experiment Against the Enzymatic Activity of MAO-A (Monoamine Oxidase Type A)
as §1
2. Reaction Buffer Solution: 50 mM PBS, pH 7.4
Protein: MAO-A, manufacturer: Sigma Aldrich
According to the method as described in the specification of the kit, MAO-A protein (15 μg/ml) and different concentrations of the test compound were pre-incubated at room temperature for 30 minutes, and then 200 μM p-tyramine hydrochloride, 1 U/mL HRP and 200 µM Amplex Red reagent were added to start the reaction. In kinetic mode, fluorescence signals were measured at Ex/Em=540/590 nm. The inhibition rate of each concentration group was calculated, wherein the ratio of fluorescence signal to reaction time ratio is the reaction rate, the vehicle group (DMSO) is the negative control, and the reaction buffer solution group (without enzymes and the compounds) is the blank control.
Percent inhibition rate (%)=(1-(reaction rate of each compound concentration group−reaction rate of the blank group)/(reaction rate of vehicle group−reaction rate of the blank group))*100.
According to the above method, the inhibition of the compound against the enzymatic activity of MAO-A was measured, and the range of IC50 was obtained according to the inhibition rates at 100 μM and 10 μM.

T2 sequence (Q12809 whole entry): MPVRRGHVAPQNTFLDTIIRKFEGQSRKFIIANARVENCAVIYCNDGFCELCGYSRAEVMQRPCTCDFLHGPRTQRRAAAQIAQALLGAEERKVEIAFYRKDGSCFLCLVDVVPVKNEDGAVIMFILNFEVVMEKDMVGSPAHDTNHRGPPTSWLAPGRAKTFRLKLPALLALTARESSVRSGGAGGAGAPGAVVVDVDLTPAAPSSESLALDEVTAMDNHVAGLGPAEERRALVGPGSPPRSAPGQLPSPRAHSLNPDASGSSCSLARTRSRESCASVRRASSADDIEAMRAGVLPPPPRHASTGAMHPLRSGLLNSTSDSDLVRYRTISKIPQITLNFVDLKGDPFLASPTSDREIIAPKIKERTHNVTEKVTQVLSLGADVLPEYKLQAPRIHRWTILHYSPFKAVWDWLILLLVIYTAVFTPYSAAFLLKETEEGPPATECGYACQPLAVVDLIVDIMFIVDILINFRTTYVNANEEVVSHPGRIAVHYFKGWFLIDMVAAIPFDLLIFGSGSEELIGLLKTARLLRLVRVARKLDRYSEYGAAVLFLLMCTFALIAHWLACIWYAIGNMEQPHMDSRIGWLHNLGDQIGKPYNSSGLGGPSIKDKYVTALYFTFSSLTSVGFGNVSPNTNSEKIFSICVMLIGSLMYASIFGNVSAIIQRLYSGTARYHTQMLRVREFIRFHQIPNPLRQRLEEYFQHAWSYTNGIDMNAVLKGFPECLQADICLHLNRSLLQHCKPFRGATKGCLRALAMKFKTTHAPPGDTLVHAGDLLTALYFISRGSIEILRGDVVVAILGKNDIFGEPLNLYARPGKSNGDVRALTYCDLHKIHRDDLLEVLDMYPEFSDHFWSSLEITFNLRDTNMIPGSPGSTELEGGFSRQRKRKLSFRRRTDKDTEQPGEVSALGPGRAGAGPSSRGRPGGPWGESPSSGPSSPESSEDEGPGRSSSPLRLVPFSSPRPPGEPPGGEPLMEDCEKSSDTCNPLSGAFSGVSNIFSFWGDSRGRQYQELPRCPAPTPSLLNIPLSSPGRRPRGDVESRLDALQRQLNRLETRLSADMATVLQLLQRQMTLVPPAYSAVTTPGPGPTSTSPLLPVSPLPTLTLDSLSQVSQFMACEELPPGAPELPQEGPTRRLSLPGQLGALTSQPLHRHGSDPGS

In the case of “(E)-6-((2-(methylamino)-3-fluoroallyl)oxy)-2-methyl-3,4-dihydroisoquinolin-1(2H)-one trifluoroacetate [TM66-E]”, the IC50 (MAO-B) is reported as greater than 10 µM, the IC50 (hERG) is reported as greater than 10 µM and the IC50 (MAO-A) is reported as greater than 10 µM.

In the case of NC/C(=C\F)COc1ccc(C(=O)NC2CCOCC2)cc1 [TM76-E, (E)-N-(tetrahydro-2H-pyran-4-yl)-4-((2-aminomethyl-3-fluoroallyl)oxy)-benzamide trifluoroacetate], the IC50 (MAO-B) is reported as greater than 1 µM, the IC50 (hERG) is reported as greater than 10 µM and the IC50 (MAO-A) is reported as greater than 100 µM.

For “(E)-6-((2-(methylamino)-3-fluoroallyl)oxy)-3,3-dimethyl-3,4-dihydro-isoquinolin-1(2H)-one trifluoroacetate [TM38-E]”, the IC50 (MAO-B) was greater than 10 µM, the IC50 (hERG) was greater than 10 µM and the IC50 (MAO-A) was greater than 100 µM.

NC/C(=C\F)COc1ccc(C(=O)Nc2ccccc2)cc1 [TM1-E, (E)-N-phenyl-4-((2-aminomethyl-3-fluoroallyl)oxy)-benzamide trifluoroacetate] was tested, and the IC50 (hERG) was greater than 10 µM.

For NC/C(=C\F)COc1ccc2c(c1)C(=O)CC2 [TM7-E, (E)-6-((2-aminomethyl-3-fluoroallyl)oxy)-2,3-dihydro-1-indenone trifluoroacetate], the IC50 (MAO-B) was greater than 10 µM, the IC50 (hERG) was greater than 10 µM and the IC50 (MAO-A) was greater than 100 µM.

For NC/C(=C\F)COc1ccc(-c2ncccn2)cc1 [TM39-E, (E)-2-(4-(2-pyrimidyl)phenoxymethyl)-3-fluoroallylamine trifluoroacetate], the IC50 (hERG) was greater than 10 µM and the IC50 (MAO-A) was greater than 10 µM.

Work on NC/C(=C/F)COc1ccc(C(=O)NCc2ccccn2)cc1 [TM112-Z, (Z)-4-((2-aminomethyl-3-fluoroallyl)oxy)-N-(pyridin-2-ylmethyl)benzamide trifluoroacetate] yielded an IC50 (MAO-B) greater than 0.1 µM, an IC50 (hERG) greater than 10 µM and an IC50 (MAO-A) greater than 100 µM.

In the case of NC/C(=C/F)COc1ccc2c(c1)CCNC2=O [TM26-Z, (Z)-6-((2-aminomethyl-3-fluoroallyl)oxy)-3,4-dihydroisoquinolin-1(2H)-one trifluoroacetate], the IC50 (MAO-B) is reported as greater than 1 µM, the IC50 (hERG) is reported as greater than 10 µM and the IC50 (MAO-A) is reported as greater than 100 µM.
